From patent US7045528B2, “Benzofused heterozryl amide derivatives of thienopyridines useful as therapeutic agents, pharmaceutical compositions including the same, and methods for their use” (Agouron Pharmaceuticals, Inc., priority 2002, dated 2006)
pKi: −log10 of the molar value.

Tests used:
[1] = test system: human umbilical vein endothelial cells (HUVEC); test: HUVEC+VEGF proliferation assay; type: cell-based; settings: Homo sapiens, HUVEC; VEGF 6 ng/mL, 72 h, MTT
Protocol: HUVEC+VEGF Proliferation Assay
This assay determines the ability of a test compound to inhibit the growth factor-stimulated proliferation of human umbilical vein endothelial cells (“HUVEC”). HUVEC cells (passage 3–4; Clonetics, Corp.) were thawed into EGM2 culture medium (Clonetics Corp) in T75 flasks. Fresh EGM2 medium was added to the flasks 24 hours later. Four or five days later, cells were exposed to another culture medium (F12K medium supplemented with 10% fetal bovine serum (FBS), 60 μg/mL endothelial cell growth supplement (ECGS), and 0.1 mg/mL heparin). Exponentially-growing HUVEC cells were used in experiments thereafter. Ten to twelve thousand HUVEC cells were plated in 96-well dishes in 100 μl of rich, culture medium (described above). The cells were allowed to attach for 24 hours in this medium. The medium was then removed by aspiration and 105 μl of starvation media (F12K+1% FBS) was added to each well. After 24 hours, 15 μl of test agent dissolved in 1% DMSO in starvation medium or this vehicle alone was added into each treatment well; the final DMSO concentration was 0.1%. One hour later, 30 μl of VEGF (30 ng/mL) in starvation media was added to all wells except those containing untreated controls; the final VEGF concentration was 6 ng/mL. Cellular proliferation was quantified 72 hours later by MTT dye reduction, at which time cells were exposed for 4 hours MTT (Promega Corp.). Dye reduction was stopped by addition of a stop solution (Promega Corp.) and absorbance at 595 nm was determined on a 96-well spectrophotometer plate reader.

[2] = biological target: T1, unphosphorylated VEGF-R2Δ50 (FLVK) (Homo sapiens, UniProt P35968, DEL940-989/E990V); test: VEGF-R2 coupled spectrophotometric assay, unphosphorylated VEGF-R2Δ50 (FLVK); type: biochemical; settings: unphosphorylated VEGF-R2Δ50; for inhibition at 0.05 µM: 50 nM compound, read-out: FLVK (% inh @ 50 nM)
T1 construct: VEGF-R2Δ50 contains residues 806–939 and 990–1171; made in house; host or cells: baculovirus/insect cell system
T1 sequence (P35968 with tags, fused parts or gaps DEL940-989/E990V limits assumed): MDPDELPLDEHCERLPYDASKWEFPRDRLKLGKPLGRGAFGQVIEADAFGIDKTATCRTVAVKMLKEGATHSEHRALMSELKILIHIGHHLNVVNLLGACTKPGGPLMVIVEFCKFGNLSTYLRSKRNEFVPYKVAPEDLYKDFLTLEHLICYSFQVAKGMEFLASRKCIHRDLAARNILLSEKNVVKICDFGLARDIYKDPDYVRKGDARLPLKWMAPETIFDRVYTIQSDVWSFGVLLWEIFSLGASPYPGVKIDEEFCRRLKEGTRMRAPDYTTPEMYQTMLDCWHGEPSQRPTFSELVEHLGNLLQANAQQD
Description: VEGF-R2 Construct for Assay:
This construct determines the ability of a test compound to inhibit tyrosine kinase activity. A construct (VEGF-R2Δ50) of the cytosolic domain of human vascular endothelial growth factor receptor 2 (VEGF-R2) lacking the 50 central residues of the 68 residues of the kinase insert domain was expressed in a baculovirus/insect cell system. Of the 1356 residues of full-length VEGF-R2, VEGF-R2Δ50 contains residues 806–939 and 990–1171, and also one point mutation (E990V) within the kinase insert domain relative to wild-type VEGF-R2. Autophosphorylation of the purified construct was performed by incubation of the enzyme at a concentration of 4 μM in the presence of 3 mM ATP and 40 mM MgCl2 in 100 mM HEPES, pH 7.5, containing 5% glycerol and 5 mM DTT, at 4° C. for 2 h. […] See Parast et al., Biochemistry, 37, 16788–16801 (1998).
Coupled Spectrophotometric (FLVK-P) Assay
The production of ADP from ATP that accompanies phosphoryl transfer was coupled to oxidation of NADH using phosphoenolpyruvate (PEP) and a system having pyruvate kinase (PK) and lactic dehydrogenase (LDH). The oxidation of NADH was monitored by following the decrease of absorbance at 340 nm (e340=6.22 cm^−1 mM^−1) using a Beckman DU 650 spectrophotometer. Assay conditions for phosphorylated VEGF-R2Δ50 (indicated as FLVK-P in the tables below) were the following: 1 mM PEP; 250 μM NADH; 50 units of LDH/mL; 20 units of PK/mL; 5 mM DTT; 5.1 mM poly(E4Y1); 1 mM ATP; and 25 mM MgCl2 in 200 mM HEPES, pH 7.5. Assay conditions for unphosphorylated VEGF-R2Δ50 (indicated as FLVK in the tables) were the following: 1 mM PEP; 250 μM NADH; 50 units of LDH/mL; 20 units of PK/mL; 5 mM DTT; 20 mM poly(E4Y1); 3 mM ATP; and 60 mM MgCl2 and 2 mM MnCl2 in 200 mM HEPES, pH 7.5. Assays were initiated with 5 to 40 nM of enzyme. Ki values were determined by measuring enzyme activity in the presence of varying concentrations of test compounds. […] The binding inhibitions were fitted to equation as described by Morrison. The data were analyzed using Enzyme Kinetic and Kaleidagraph software.

PDGFRβ = biological target: T2, PDGFRβ (Homo sapiens, UniProt P09619); test: PAE-PDGFRβ phosphorylation in PAE-PDGFRB cells assay; type: cell-based; settings: PAE cells overexpressing human PDGFRβ, PDGF-BB stimulated; read-out: PAE PDGFR autophos IC50 (nM) AVG
T2 construct: expressed in transfected cells; host or cells: porcine aorta endothelial (PAE)-PDGFRβ cells
T2 sequence (P09619 33-1106): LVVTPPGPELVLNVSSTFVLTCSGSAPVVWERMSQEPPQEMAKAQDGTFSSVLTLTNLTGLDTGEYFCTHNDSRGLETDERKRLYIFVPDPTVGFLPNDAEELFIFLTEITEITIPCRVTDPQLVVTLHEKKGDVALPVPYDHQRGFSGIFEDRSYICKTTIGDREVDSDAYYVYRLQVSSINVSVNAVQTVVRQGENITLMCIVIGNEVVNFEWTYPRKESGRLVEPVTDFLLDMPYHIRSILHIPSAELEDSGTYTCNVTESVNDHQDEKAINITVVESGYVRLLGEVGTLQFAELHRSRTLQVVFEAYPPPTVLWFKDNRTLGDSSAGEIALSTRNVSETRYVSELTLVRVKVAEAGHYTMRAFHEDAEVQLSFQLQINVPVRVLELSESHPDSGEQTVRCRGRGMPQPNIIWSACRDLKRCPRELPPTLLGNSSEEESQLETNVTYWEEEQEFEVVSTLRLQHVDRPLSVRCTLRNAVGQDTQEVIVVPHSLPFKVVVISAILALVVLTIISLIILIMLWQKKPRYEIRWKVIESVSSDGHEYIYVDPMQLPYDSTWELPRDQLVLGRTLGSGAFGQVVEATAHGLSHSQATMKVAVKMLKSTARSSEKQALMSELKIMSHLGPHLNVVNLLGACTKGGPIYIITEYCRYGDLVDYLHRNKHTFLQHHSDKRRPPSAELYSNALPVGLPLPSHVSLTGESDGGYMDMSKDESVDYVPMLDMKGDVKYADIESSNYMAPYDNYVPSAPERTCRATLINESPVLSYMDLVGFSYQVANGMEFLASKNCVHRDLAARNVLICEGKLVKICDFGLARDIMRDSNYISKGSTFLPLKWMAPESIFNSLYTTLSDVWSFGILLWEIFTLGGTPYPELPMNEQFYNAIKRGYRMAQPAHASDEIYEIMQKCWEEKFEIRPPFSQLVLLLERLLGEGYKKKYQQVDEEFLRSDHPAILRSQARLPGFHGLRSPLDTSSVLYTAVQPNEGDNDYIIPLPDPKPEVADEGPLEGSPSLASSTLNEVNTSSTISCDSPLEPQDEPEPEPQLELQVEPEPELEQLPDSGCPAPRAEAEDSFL
Protocol: PAE-PDGFRβ Phosphorylation in PAE-PDGFRB Cells Assay
This assay determines the ability of a test compound to inhibit the autophosphorylation of PDGFRβ in porcine aorta endothelial (PAE)-PDGFRβ cells. PAE cells that overexpress human PDGFRβ were used in this assay. The cells were cultured in Ham's F12 media supplemented with 10% fetal bovine serum (FBS) and 400 ug/ml G418. Twenty thousands cells were seeded in each well of a 96-well plate in 50 μL of growth media and allowed to attach for 6 hours at 37° C. Cells were then exposed to the starvation media (Ham's F12 media supplemented with 0.1% FBS) for 16 hours. After the starvation period was over, 10 μL of test agent in 5% DMSO in starvation media were added to the test wells and 10 μL of the vehicle (5% DMSO in starvation media) were added into the control wells. The final DMSO concentration in each well was 0.5%. Plates were incubated at 37° C. for 1 hour and the cells were then stimulated with 1 μg/mL PDGF-BB (R & D System) in the presence of 2 mM Na3VO4 for 8 minutes. The cells were washed once with 1 mm Na3VO4 in HBSS and lysed by adding 50 μL per well of lysis buffer. One hundred μL of dilution buffer were then added to each well and the diluted cell lysate was transferred to a 96-well goat ant-rabbit coated plate (Pierce), which was pre-coated with Rabbit anti Human PDGFRβ antibody (Santa Cruz). The plates were incubated at room temperature for 2 hours and washed seven times with 1% Tween 20 in PBS. HRP-PY20 (Santa Cruz) was diluted and added to the plate for a 30-minute incubation. Plates were then washed again and TMB peroxidase substrate (Kirkegaard & Perry) was added for a 10-minute incubation. One hundred μL of 0.09 N H2SO4 was added into each well of the 96-well plate to stop the reaction. Phosphorylation status was assessed by spectrophotometer reading at 450 nm. IC50 values were calculated by curve fitting using a four-parameter analysis.

Compound | IC50 [1] [nM] | inhibition at 0.05 µM [2] [%] | pKi [2] | IC50 (PDGFRβ) [nM]
Cc1c(C(=O)NC(C)C)c2ccc(Oc3ccnc4cc(-c5nccs5)sc34)cc2n1C [Example 66, 1,2-Dimethyl-6-(2-thiazol-2-yl-thieno[3,2-b]pyridin-7-yloxy)-1H-indole-3-carboxylic acid isopropylamide] | 5.8 | 75 | 8.28 | 90.7
CCc1sc2cc(Oc3ccnc4cc(C(=O)N5CC[C@@H](O)C5)sc34)ccc2c1C(=O)NC [Example 136, 2-Ethyl-6-[(2-{[(3R)-3-hydroxypyrrolidin-1-yl]carbonyl}thieno[3,2-b]pyridin-7-yl)oxy]benzo[b]thiophene-3-carboxylic acid methylamide] | 10 | 88 | 8.93 | 609
CCc1oc2cc(Oc3ccnc4cc(C(=O)N5CCC5)sc34)ccc2c1C(=O)NC [Example 98, 6-[2-(Azetidine-1-carbonyl)-thieno[3,2-b]pyridin-7-yloxy]-2-ethyl-benzofuran-3-carboxylic acid methylamide] | 9.4 | 86 | 9.42 | 127
CNCC1CCN(C(=O)c2cc3nccc(Oc4ccc5c(C(=O)NC)c(C)n(C)c5c4)c3s2)C1 (stereo not drawn) [Example 46, 1,2-Dimethyl-6-[2-(3-methylaminomethyl-pyrrolidine-1-carbonyl)-thieno[3,2-b]pyridin-7-yloxy]-1H-indole-3-carboxylic acid methylamide] | 3.13 | 68 | 8.19 | 
CO[C@@H]1CCN(C(=O)c2cc3nccc(Oc4ccc5c(C(=O)NCCO)c(C)sc5c4)c3s2)C1 [Example 123, 6-[(2-{[(3R)-3-Methoxypyrrolidin-1-yl]carbonyl}thieno[3,2-b]pyridin-7-yl)oxy]-2-methylbenzo[b]thiophene-3-carboxylic acid 2-hydroxyethylamide] | 10 | 74 | 8.58 | 229
CCC(=O)c1cc2nccc(Oc3ccc4c(C(=O)NC)c(C)n(C)c4c3)c2s1 [Example 51, 1,2-Dimethyl-6-(2-propionyl-thieno[3,2-b]pyridin-7-yloxy)-1H-indole-3-carboxylic acid methylamide] | 82 | 34 | 7.56 | 
COC[C@@H]1CCCN1C(=O)c1cc2nccc(Oc3ccc4c(C(=O)NCC5CC5)c(C)sc4c3)c2s1 [Example 132, 6[(2-{[(2S)-2-(Methoxymethyl)pyrrolidin-1-yl]carbonyl}thieno[3,2-b]pyridin-7-yl)oxy]-2-methylbenzo[b]thiophene-3-carboxyllc acid (cyclopropylmethyl)amide] | 5.8 | 80 | 8.75 | 467
CNC(=O)c1c(C)n(C)c2cc(Oc3ccnc4cc(C(=O)N5C[C@@H](O)[C@@H](O)C5)sc34)ccc12 [Example 37, 6-[2-(3,4-Dihydroxy-pyrrolidine-1-carbonyl)-thieno[3,2-b]pyridin-7-yloxy]-1,2-dimethyl-1H-indole-3-carboxylic acid methylamide] | 10 | 66 | 8.37 | 
Cc1oc2cc(Oc3ccnc4cc(C(=O)N5CCC[C@H]5CO)sc34)ccc2c1C(=O)NCC(C)C [Example 86, 2-Methyl-6-[2-(2-hydroxymethyl-pyrrolidine-1-carbonyl)-thieno[3,2-b]pyridin-7-yloxy]-benzofuran-3-carboxylic acid isobutyl amide] | 3.07 | 81 | 8.84 | 17.9
Cc1c(C(=O)NCC2CC2)c2ccc(Oc3ccnc4cc(-c5nccn5C)sc34)cc2n1C [Example 55, N-(Cyclopropylmethyl)-1,2-dimethyl-6-{[2-(1-methyl-1H-imidazol-2-yl)thieno[3,2-b]pyridin-7-yl]oxy}-1H-indole-3-carboxamide] | 5.8 | 62 | 8.31 | 31
CNC(=O)c1c(C)n(C)c2cc(Oc3ccnc4cc(-c5ccccn5)sc34)ccc12 [Example 42, 1,2-Dimethyl-6-(2-pyridin-2-yl-thieno[3,2-b]pyridin-7-yloxy)-1H-indole-3-carboxylic acid methylamide] | 4.34 | 76 | 8.55 | 8.9
CNC(=O)c1c(C)n(C)c2cc(Oc3ccnc4cc(-c5cncnc5)sc34)ccc12 [Example 39, 1,2-Dimethyl-6-(2-pyrimidin-5-yl-thieno[3,2-b]pyridin-7-yloxy)-1H-indole-3-carboxylic acid methylamide] | 8.7 | 12 | 7.33 | 61
CNC(=O)c1csc(-c2cc3nccc(Oc4ccc5c(C(=O)NC)c(C)n(C)c5c4)c3s2)n1 [Example 43, 1,2-Dimethyl-6-[2-(4-methylcarbamoyl-thiazol-2-yl)-thieno[3,2-b]pyridin-7-yloxy]-1H-indole-3-carboxylic acid methylamide] | 10 | 67 | 8.49 | 
CNC(=O)c1c(C)n(C)c2cc(Oc3ccnc4cc(-c5cccc(OC)n5)sc34)ccc12 [Example 49, 6-[2-(6-Methoxy-pyridin-2-yl)-thieno[3,2-b]pyridin-7-yloxy]-1,2-dimethyl-1H-indole-3-carboxylic acid methylamide] | 7 | 67 | 7.80 | 
